Reference: the supplement of paper PMC10307832

Key:
Test in all cases: relative viability (nuclei count vs DMSO), 5 days (fraction); higher = more cells survive
Ispinesib + Pictilisib = compound: Cc1ccc(C(=O)N(CCCN)[C@@H](c2nc3cc(Cl)ccc3c(=O)n2Cc2ccccc2)C(C)C)cc1 [Ispinesib] + CS(=O)(=O)N1CCN(Cc2cc3nc(-c4cccc5[nH]ncc45)nc(N4CCOCC4)c3s2)CC1 [Pictilisib] (partner 1 µM)
Summary of the method: (§1)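 Relative viability equals treated-well nuclei counts divided by vehicle-well nuclei counts. Counts came from 4× images of lung cancer cell lines grown in 1536-well plates for 5 days after pin-tool dosing on the day after seeding. Dosing used one drug alone or a fixed anchor-drug dose plus five library-drug doses (not always all listed) in √10 steps, and values are medians of duplicate plates.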

Ispinesib + Bortezomib = compound: Cc1ccc(C(=O)N(CCCN)[C@@H](c2nc3cc(Cl)ccc3c(=O)n2Cc2ccccc2)C(C)C)cc1 [Ispinesib] + CC(C)C[C@H](NC(=O)[C@H](Cc1ccccc1)NC(=O)c1cnccn1)B(O)O [Bortezomib] (partner 0.002 µM)
Summary of the method: as §1

Linsitinib + Pemetrexed = compound: C[C@]1(O)C[C@@H](c2nc(-c3ccc4ccc(-c5ccccc5)nc4c3)c3c(N)nccn32)C1 [Linsitinib] + Nc1nc2[nH]cc(CCc3ccc(C(=O)N[C@@H](CCC(=O)O)C(=O)O)cc3)c2c(=O)[nH]1 [Pemetrexed] (partner 0.2 µM)
Summary of the method: as §1

Ispinesib + Palbociclib = compound: Cc1ccc(C(=O)N(CCCN)[C@@H](c2nc3cc(Cl)ccc3c(=O)n2Cc2ccccc2)C(C)C)cc1 [Ispinesib] + CC(=O)c1c(C)c2cnc(Nc3ccc(N4CCNCC4)cn3)nc2n(C2CCCC2)c1=O [Palbociclib] (partner 0.5 µM)
Summary of the method: as §1

Cell Line	relative viability (Ispinesib + Pictilisib; first compound 0.001 µM)	relative viability (Ispinesib + Pictilisib; first compound 0.003162 µM)	relative viability (Ispinesib + Pictilisib; first compound 0.01 µM)	relative viability (Ispinesib + Pictilisib; first compound 0.03162 µM)	relative viability (Ispinesib + Pictilisib; first compound 0.1 µM)	relative viability (Ispinesib + Bortezomib; first compound 0.001 µM)	relative viability (Ispinesib + Bortezomib; first compound 0.003162 µM)	relative viability (Ispinesib + Bortezomib; first compound 0.01 µM)	relative viability (Ispinesib + Bortezomib; first compound 0.03162 µM)	relative viability (Ispinesib + Bortezomib; first compound 0.1 µM)	relative viability (Linsitinib + Pemetrexed; first compound 0.01 µM)	relative viability (Linsitinib + Pemetrexed; first compound 0.03162 µM)	relative viability (Linsitinib + Pemetrexed; first compound 0.1 µM)	relative viability (Linsitinib + Pemetrexed; first compound 1 µM)	relative viability (Ispinesib + Palbociclib; first compound 0.001 µM)	relative viability (Ispinesib + Palbociclib; first compound 0.003162 µM)	relative viability (Ispinesib + Palbociclib; first compound 0.01 µM)	relative viability (Ispinesib + Palbociclib; first compound 0.03162 µM)	relative viability (Ispinesib + Palbociclib; first compound 0.1 µM)	relative viability (Linsitinib + Pemetrexed; first compound 0.3162 µM)
ChaGo-K-1	0.895	1.3	0.659	0.397	0.312	1.02	1.45	1.11	0.966	0.379	0.263	0.243	0.271	0.261	0.8	1.01	1.11	0.985	0.845	
EBC-1	0.448	0.38	0.328	0.179	0.191	0.663	0.626	0.476	0.207	0.263										
EKVX	0.442	0.423	0.508	0.543	0.438	1.09	1.24	1.15	0.939	0.186		0.243	0.425	0.36	0.456		0.409	0.463	0.295	0.352
EMC-BAC-2	0.553	0.568	0.539	0.413	0.239	1.06	1.13	1.27	0.671	0.214	0.397	0.394	0.447	0.432	0.509	0.556	0.506	0.432	0.431	0.448
EPLC-272H	0.295	0.337	0.338	0.258	0.142	0.869	1.13	0.935	0.655	0.163	0.366	0.193	0.325	0.32	0.341	0.306	0.329	0.328	0.149	0.244
H3255	0.456	0.431	0.471	0.335	0.345	1	0.991	0.814	0.38	0.374	0.457	0.566	0.533	0.521	0.309	0.339	0.347	0.294	0.291	0.557
HARA	0.445	0.43	0.392	0.467	0.179	1.37	1.21	1.42	0.931	0.211	0.258	0.198	0.22	0.239	0.299	0.262	0.284	0.256	0.225	
HCC-15	0.878	0.864	0.812	0.459	0.139	1.14	1.19	1.24	0.563	0.226	0.215	0.199	0.209	0.213	0.518	0.847	0.899	0.644	0.418	0.191
HCC-44	0.768	0.858	0.68	0.646	0.106	0.911	1	1.1	0.719	0.131	0.624	0.511	0.618	0.6	0.996	0.985	0.978	0.999	0.948	0.555
